pEC50: −log10 of the molar value.
target: T1, human M4 muscarinic acetylcholine receptor (Homo sapiens, UniProt P08173); assay: human FLIPR-based M4 PAM assay, CHO-K1 cells stably transfected with human M4 receptor and chimeric G-protein Gαqi5; assay type: cell-based; settings: inflection point (IP) of dose response curve; acetylcholine added at 20% of maximum response; CHO-K1 human M4/Gαqi5, FLIPR Tetra
T1 construct: expressed in transfected cells; host or cells: CHO-K1
T1 sequence (P08173 1-479): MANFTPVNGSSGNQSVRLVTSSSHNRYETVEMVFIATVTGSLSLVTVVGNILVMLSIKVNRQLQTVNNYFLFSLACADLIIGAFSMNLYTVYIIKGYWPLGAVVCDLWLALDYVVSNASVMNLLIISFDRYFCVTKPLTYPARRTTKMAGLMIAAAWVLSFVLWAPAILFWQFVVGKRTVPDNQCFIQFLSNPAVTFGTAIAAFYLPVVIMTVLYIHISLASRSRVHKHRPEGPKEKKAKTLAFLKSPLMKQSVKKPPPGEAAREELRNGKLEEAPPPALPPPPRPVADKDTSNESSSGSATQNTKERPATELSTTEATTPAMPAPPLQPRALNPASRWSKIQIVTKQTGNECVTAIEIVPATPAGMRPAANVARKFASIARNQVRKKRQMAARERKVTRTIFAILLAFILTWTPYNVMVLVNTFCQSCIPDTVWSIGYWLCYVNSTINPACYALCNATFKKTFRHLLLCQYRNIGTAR
Summary of the method: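 CHO-K1 cells were loaded with calcium dye at 37 °C for ~1 h. Fluorescence (ex 470–495/em 515–575 nm) was read for 4 min after test compound at increasing concentrations, then 3.5 min after acetylcholine at an EC20; sometimes a third addition at EC70 followed. The value is the inflection point of a 4-parameter logistic fit.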

| Structure (SMILES) | pEC50 |
| --- | --- |
| COCc1nc(Cl)c(C)c(N2CCC(Oc3ccc(OC)nc3)CC2)n1 [Example 78, 4-chloro-2-(methoxymethyl)-6-(4-((6-methoxypyridin-3-yl)oxy)piperidin-1-yl)-5-methylpyrimidine] | 6.73 |
| COc1ccc(OC2CCN(c3nnc(C(=O)NCc4ccncn4)cc3C)CC2)cn1 [Example 150, 6-{4-[(6-methoxypyridin-3-yl)oxy]piperidin-1-yl}-5-methyl-N-(pyrimidin-4-ylmethyl)pyridazine-3-carboxamide] | 6.63 |
| Cc1ncc(C)c(N2CC[C@@H](Oc3cccc(C#N)c3)[C@@H](F)C2)n1 [Example 75, 3-(((3S,4R)-1-(2,5-dimethylpyrimidin-4-yl)-3-fluoropiperidin-4-yl)oxy)benzonitrile] | 6.81 |
| COc1ccc(OC2CCN(c3nc(CO)nc(Cl)c3C)CC2)cn1 [Example 68, (4-chloro-6-(4-((6-methoxypyridin-3-yl)oxy)piperidin-1-yl)-5-methylpyrimidin-2-yl)methanol] | 6.90 |
| COc1ccc(OC2CCN(c3nnc(C(=O)NCCc4ccccc4Cl)cc3C)CC2)cn1 [Example 197, N-[2-(2-chlorophenyl)ethyl]-6-{4-[(6-methoxypyridin-3-yl)oxy]piperidin-1-yl}-5-methylpyridazine-3-carboxamide] | 7.04 |
| COc1ccc(OC2CCN(c3nc(CO)nc(C)c3C)CC2)cn1 [Example 241, (4-(4-((6-Methoxypyridin-3-yl)oxy)piperidin-1-yl)-5,6-dimethylpyrimidin-2-yl)methanol] | 7.38 |
| COC(=O)c1cc(C)c(N2CCC(Oc3ccc(OC)nc3)CC2)nn1 [Example 70, methyl 6-(4-((6-methoxypyridin-3-yl)oxy)piperidin-1-yl)-5-methylpyridazine-3-carboxylate] | 6.89 |
| COc1ccc(OC2CCN(c3ncnc(N4CCc5scnc5C4)c3C)CC2)cn1 [Example 229, 5-(6-(4-((6-methoxypyridin-3-yl)oxy)piperidin-1-yl)-5-methylpyrimidin-4-yl)-4,5,6,7-tetrahydrothiazolo[4,5-c]pyridine] | 6.09 |

Second part, the molecule after the results:

| pEC50 | Structure (SMILES) |
| --- | --- |
| 7.24 | CCOC(=O)c1cc(C)c(N2CCC(Oc3cccc(C#N)c3)CC2)nn1 [Example 105, ethyl 6-(4-(3-cyanophenoxy)piperidin-1-yl)-5-methylpyridazine-3-carboxylate] |
| 6.13 | CSc1nc(Cl)c(C)c(N2CCC(Oc3cccnc3)CC2)n1 [Example 15, 4-chloro-5-methyl-2-(methylthio)-6-(4-(pyridin-3-yloxy)piperidin-1-yl)pyrimidine] |
| 7.11 | Cc1c(Cl)nc(CO)nc1N1CC[C@@H](Oc2ccc3c(cnn3C)c2)[C@@H](F)C1 (relative stereo) [Example 25, (4-chloro-6-((cis)-3-fluoro-4-((1-methyl-1H-indazol-5-yl)oxy)piperidin-1-yl)-5-methylpyrimidin-2-yl)methanol] |
| 5.82 | COc1ccc([C@@H](C)NC(=O)c2cc(C)c(N3CCC(Oc4ccc(OC)nc4)CC3)nn2)cc1 [Example 188, N-[(1R)-1-(4-methoxyphenyl)ethyl]-6-{4-[(6-methoxypyridin-3-yl)oxy]piperidin-1-yl}-5-methylpyridazine-3-carboxamide] |
| 7.21 | Cc1cc(C#N)nnc1N1CCC(Oc2cccc(C#N)c2)CC1 [Example 259, 6-(4-(3-cyanophenoxy)piperidin-1-yl)-5-methylpyridazine-3-carbonitrile] |
| 7.14 | COc1ccc(OC2CCN(c3nnc(C#N)cc3C)CC2)cn1 [Example 258, 6-(4-((6-Methoxypyridin-3-yl)oxy)piperidin-1-yl)-5-methylpyridazine-3-carbonitrile] |
| 7.39 | COc1ccc(OC2CCN(c3nc(C#N)c(C(N)=O)cc3C)CC2)cn1 [Example 112, 2-cyano-6-{4-[(6-methoxpyridin-3-yl)oxy]piperidin-1-yl}-5-methylpyridine-3-carboxamide] |

Source: patent US11319298B2 (Merck Sharp & Dohme Corp., priority 2016, dated 2022)
